From PubChem BioAssay AID1996
Converted amounts (≈) assume the structure as drawn.

Settings: buffer; pH 7.4; 200.0 µM

Row | SMILES | solubility kinetic [µg/mL]
1 | CCCCOc1ccc(C(=O)Nc2ccc3c(c2)OCO3)cc1 | < 0.7
2 | CCn1c(SCC#N)nc2cc(S(=O)(=O)N3CCOCC3)ccc21 | > 55
3 | COc1ccc(-n2cnc3ccccc3c2=O)c([N+](=O)[O-])c1 | > 44.6
4 | O=C(C=C1NCCN1)c1ccccc1 | > 28.2
5 | Cc1cc(Cl)c(S(=O)(=O)N2CCCC2)cc1OCC(N)=O | > 49.9
6 | CC(=O)NCCc1ccc(C(=O)COC(=O)c2cc(C)oc2C)cc1 | > 51.5
7 | CC(C(=O)OCC(=O)NC1CCCC1)N1C(=O)c2ccccc2C1=O (configuration not stated) | 50 (≈ 145 µM)
8 | Cc1noc(C)c1-c1nc(CSc2ccc(Cl)cc2)no1 | < 0.2
9 | Br.C=CCN1CCc2cccc3c2[C@H]1Cc1ccc(O)c(O)c1-3 | 27.9
10 | O=C1c2ccccc2CN1Cc1ccccc1 | > 33.5
11 | C#CC[N+]1(C)C2CCC1CC(O)C2.[Br-] (configuration not stated) | 33.7
12 | O=C(Nc1cc(Cl)ccc1F)C1=COCCO1 | > 38.6
13 | CCOc1ccc2[nH]c(SCC(=O)OC)c([N+](=O)[O-])c2c1 | 19.1 (≈ 61.5 µM)
14 | CC(CCc1ccccc1)NCC#N.Cl (configuration not stated) | 31.1
15 | O=C1COc2ccc(C(=O)C[n+]3cccc(O)c3)cc2N1.[Cl-] | > 48.1
16 | Cc1onc(-c2c(Cl)cccc2Cl)c1C(=O)Nc1nccs1 | 4.7 (≈ 13.3 µM)
17 | O=C(NCCCCNC(=O)c1ccccn1)c1ccccn1 | > 44.8
18 | CCCC(=O)N/C(N)=N/c1nc(C)c2ccccc2n1 | 15.3 (≈ 56.4 µM)
19 | COc1cc(OC)cc(C(=O)N2CC(=O)Nc3ccccc32)c1 | > 46.8
20 | O=C1CSC(=S)N1c1cccc(Br)c1 | 2.9 (≈ 10.1 µM)
21 | O=C(c1ccc2nc(Cc3ccccc3F)oc2c1)N1CCCC1 | 33.5 (≈ 103 µM)

Row | SMILES | solubility kinetic [µg/mL]
22 | C=CCNC(=S)N(C1CCCCC1)C1CCCCC1 | 21 (≈ 74.9 µM)
23 | O=C(NCCCn1ccnc1)/C(=C/c1cccnc1)NC(=O)c1ccco1 | > 54.8
24 | Cc1ccc(C)c(NC(=O)CN(C)C(=O)C2CCCC2)c1 | > 43.3
25 | CCC(C(=O)Nc1ncc(C)s1)c1ccccc1 (configuration not stated) | 2.9 (≈ 11.1 µM)
26 | COc1ccc(C(CNC(=O)Cc2c(F)cccc2Cl)N2CCCCC2)cc1 (configuration not stated) | 59.1 (≈ 146 µM)
27 | Cc1ccc(NC(=O)COC(=O)c2ccco2)cc1S(=O)(=O)N1CCOCC1 | > 61.3
28 | CCCS(=O)(=O)N1CCCC(C(=O)Oc2ccc(Cl)cc2)C1 (configuration not stated) | 1.5 (≈ 4.34 µM)
29 | O=S(=O)(NCCc1ccncc1)c1ccc(F)cc1 | > 42
30 | CN(C)c1ccc(C(=O)N(Cc2ccccc2)Cc2ccccc2)cc1 | < 0.4
31 | NC(=O)c1c(NC(=O)c2ccccc2F)sc2c1CCCC2 | 3 (≈ 9.42 µM)
32 | COc1ccccc1C(=O)Nc1ccc2c(c1)n(C)c(=O)n2C | 43.6 (≈ 140 µM)
33 | O=C(c1cc(F)c(F)cc1Cl)N1CCN(c2ncccn2)CC1 | 49.3 (≈ 146 µM)
34 | CCOC(=O)NC(N(O)c1cccc(Cl)c1)C(Cl)(Cl)Cl (configuration not stated) | 37.1 (≈ 102 µM)
35 | COc1cc(C(=O)Nc2ccn(C)n2)ccc1OC(F)F | > 44.6
36 | Cc1ccc(CCN2CC(C(=O)NCCN(C)C)CC2=O)cc1 (configuration not stated) | > 47.6
37 | CC(C)C(=O)Nc1nc2cc3c(cc2s1)OCCO3 | 37.4 (≈ 134 µM)
38 | Cc1cc(C)n(CCCNC(=O)c2ccc(C)o2)n1 | > 39.2
39 | C/C=C/C(=O)OCc1csc(CC(=O)Nc2ccccc2C)n1 | > 49.6
40 | O=C(/C=C/c1ccco1)Nc1ccc2nc3n(c(=O)c2c1)CCCC3 | 3.7 (≈ 11 µM)
41 | O=C(N1CCN(S(=O)(=O)c2ccc(Cl)cc2)CC1)n1ccnc1 | 52.8 (≈ 149 µM)
42 | Cc1cc([N+](=O)[O-])ccc1NC(=O)C(C)NC1CCCCC1 (configuration not stated) | > 45.8

Row | SMILES | solubility kinetic [µg/mL]
43 | CC1CN(c2ccc(Cl)cc2)c2nc3c(c(=O)[nH]c(=O)n3C)n2C1 (configuration not stated) | 1.2 (≈ 3.47 µM)
44 | C=CCN1C(=O)C2(OCCCO2)c2cccc(Cl)c21 | 15.1 (≈ 54 µM)
45 | Cc1cccc(NC(=O)c2ccccc2NC(=O)c2ccccc2)n1 | 1.8 (≈ 5.43 µM)
46 | O=C(COc1ccccc1Cl)NCCNC(=O)c1ccco1 | 47.3 (≈ 147 µM)
47 | COc1ccc(NC(=O)CN2CCCC2)cc1 | 34 (≈ 145 µM)
48 | O=C(NC1CSCC1OC(=O)c1ccccc1)c1ccccc1 (configuration not stated) | 26.1 (≈ 79.7 µM)
49 | Cc1ccc(C)c(NC(=O)CCN2C(=O)c3ccccc3C2=O)c1 | 1.2 (≈ 3.72 µM)
50 | CC1CCC(NC(=O)CN2C(=O)C3CC=CCC3C2=O)CC1 (configuration not stated) | > 45.7
51 | Cc1ccccc1NC(=O)COc1cccc2c1CCNC2=O | 46.1 (≈ 149 µM)
52 | CCSc1ccccc1C(=O)N=C1NC(=O)CC2C(=O)NCCN12 (configuration not stated) | 16.9 (≈ 48.8 µM)
53 | Cc1ccc(C(=O)NC2CC3CCC(C2)N3C)cc1 (configuration not stated) | > 38.8
54 | O=C(COC(=O)CC1CC2CCC1C2)NCc1ccccc1 (configuration not stated) | > 45.2
55 | CC(=O)C1=C(C)N2CCN=C2S1 | > 27.3
56 | O=C(N/N=C/c1cc(Cl)cc([N+](=O)[O-])c1O)C1CC1 | > 42.6
57 | Cc1ccc(C(CC(=O)N2CCCC2)c2ccccc2)c(O)c1 (configuration not stated) | > 46.4
58 | Nc1cccc([N+](=O)[O-])c1 | 16.7 (≈ 121 µM)
59 | CC(C)C(=O)Nc1ccccc1-c1nc2ccccc2[nH]c1=O | > 46.1
60 | COc1ccc(C(=O)NCC(=O)OCC(=O)NCc2ccco2)cc1 | > 52
61 | CCSC(=O)NC1CCCCC1 | 14.4 (≈ 76.9 µM)
62 | CC(=O)OC(C)C[N+](C)(C)C.[Cl-] (configuration not stated) | > 29.4
